Assay results taken from patent publication US10800791B2, “Triazole ACC inhibitors and uses thereof” (Gilead Apollo, LLC, priority 2015, dated 2020).
Values after ≈ are worked out from the molar mass of the structure shown. Read-outs that look alike come from different tables or passages of the source.

Assays:
[1] = test system: Phytophthora capsici (Pc); test: Growth inhibition assay of fungal pathogens, Pc; assay type: cell-based; conditions: 48 h
Summary of the method: (§1)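 Spores diluted in 17% V8 liquid media and incubated with compound at final 50, 10, 2 ppm or 2, 0.4, 0.08 ppm (2% DMSO). OD600 plus visual ratings at 24 and 48 hours, blank-subtracted; percent growth inhibition from 48 h readings relative to 2% DMSO control.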

human (hACC2) = human (hACC2) (Homo sapiens, UniProt O00763); test: In vitro ACC inhibition assay (ADP-Glo), hACC2; assay type: biochemical; conditions: 5 nM ACC2, 20 μM ATP, 20 μM acetyl-CoA
Experimental: The detailed procedure is as follows. […] 10 μL ADP glo reagent was added. […] 20 μL kinase detection reagent was added.

Diplodia maydis (Dm) = test: Growth inhibition assay of fungal pathogens, Dm; assay type: cell-based; conditions: Stenocarpella maydis, 48 h
Summary of the method: as §1

fungal (fACC2) = fungal (fACC2) (UniProt Q00955); conditions: read-out: fACC2 (in vitro ACC2 Inhibition Assay, IC50), ADP-Glo, 5 nM ACC2, 20 μM ATP, 20 μM acetyl-CoA
Rhizoctonia solani (Rs) = test: Growth inhibition assay of fungal pathogens, Rs; assay type: cell-based; conditions: 48 h
[2] = test system: Fusarium virguliforme (Fv); test: Growth inhibition assay of fungal pathogens, Fv; assay type: cell-based; conditions: 48 h
Summary of the method: as §1

Septoria tritici (St) = test: Growth inhibition assay of fungal pathogens, St; assay type: cell-based; conditions: Zymoseptoria tritici, 48 h
Summary of the method: as §1

[3] = test system: Collectotrichum graminicola (Cg); test: Growth inhibition assay of fungal pathogens, Cg; assay type: cell-based; conditions: 48 h
Summary of the method: as §1

[4] = test system: Fusarium moniliforme (Fm); test: Growth inhibition assay of fungal pathogens, Fm; assay type: cell-based; conditions: for IC90: Fusarium verticillioides, 48 h, read-out: Concentration at 90% Inhibition Fm
Summary of the method: as §1

C. parapsilosis = test: Antifungal Activity Assay (broth microtiter MIC), C. parapsilosis; assay type: cell-based, Candida parapsilosis; conditions: Lodderomyces parapsilosis, ATCC22019, 48 h
Summary of the method: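 MIC read by eye at 48 h, comparing challenged wells with the growth control. Yeasts grown overnight on Sabouraud dextrose agar at 35° C, suspended in RPMI 1640+MOPS and added at 2.5×10^3 CFU/mL final, following CLSI M27-A3.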

[5] = read-out: Concentration at 90% Inhibition Pc, Phytophthora capsici, growth inhibition at 48 hours vs 2% DMSO control
[6] = read-out: Concentration at 90% Inhibition Pc, Phytophthora capsici, growth inhibition vs 2% DMSO control at 48 hours
[7] = read-out: Concentration at 90% Inhibition Dm, Diplodia maydis, growth inhibition at 48 hours vs 2% DMSO control
[8] = read-out: Concentration at 90% Inhibition Dm, Diplodia maydis, growth inhibition vs 2% DMSO control at 48 hours
[9] = read-out: Concentration at 90% Inhibition Rs, Rhizoctonia solani, mycelial plugs, growth inhibition at 48 hours vs 2% DMSO control
[10] = read-out: Concentration at 90% Inhibition Rs, Rhizoctonia solani, mycelial plugs, growth inhibition vs 2% DMSO control at 48 hours
[11] = read-out: Concentration at 90% Inhibition Fv, Fusarium virguliforme, growth inhibition at 48 hours vs 2% DMSO control
[12] = read-out: Concentration at 90% Inhibition Fv, Fusarium virguliforme, growth inhibition vs 2% DMSO control at 48 hours
[13] = read-out: Concentration at 90% Inhibition St, Septoria tritici, growth inhibition at 48 hours vs 2% DMSO control
[14] = read-out: Concentration at 90% Inhibition St, Septoria tritici, growth inhibition vs 2% DMSO control at 48 hours
[15] = read-out: Concentration at 90% Inhibition Cg, Collectotrichum graminicola, growth inhibition at 48 hours vs 2% DMSO control
[16] = read-out: Concentration at 90% Inhibition Cg, Collectotrichum graminicola, growth inhibition vs 2% DMSO control at 48 hours
[17] = Fusarium moniliforme, growth inhibition at 48 hours vs 2% DMSO control
[18] = read-out: MIC, C. parapsilosis ATCC 22019, Table 3a, 3 replicates, MIC recorded at 48 h
[19] = read-out: MIC, C. parapsilosis ATCC 22019, Table 3b (additional results), 3 replicates, MIC recorded at 48 h

fungal (fACC2), sequence (Q00955 whole entry): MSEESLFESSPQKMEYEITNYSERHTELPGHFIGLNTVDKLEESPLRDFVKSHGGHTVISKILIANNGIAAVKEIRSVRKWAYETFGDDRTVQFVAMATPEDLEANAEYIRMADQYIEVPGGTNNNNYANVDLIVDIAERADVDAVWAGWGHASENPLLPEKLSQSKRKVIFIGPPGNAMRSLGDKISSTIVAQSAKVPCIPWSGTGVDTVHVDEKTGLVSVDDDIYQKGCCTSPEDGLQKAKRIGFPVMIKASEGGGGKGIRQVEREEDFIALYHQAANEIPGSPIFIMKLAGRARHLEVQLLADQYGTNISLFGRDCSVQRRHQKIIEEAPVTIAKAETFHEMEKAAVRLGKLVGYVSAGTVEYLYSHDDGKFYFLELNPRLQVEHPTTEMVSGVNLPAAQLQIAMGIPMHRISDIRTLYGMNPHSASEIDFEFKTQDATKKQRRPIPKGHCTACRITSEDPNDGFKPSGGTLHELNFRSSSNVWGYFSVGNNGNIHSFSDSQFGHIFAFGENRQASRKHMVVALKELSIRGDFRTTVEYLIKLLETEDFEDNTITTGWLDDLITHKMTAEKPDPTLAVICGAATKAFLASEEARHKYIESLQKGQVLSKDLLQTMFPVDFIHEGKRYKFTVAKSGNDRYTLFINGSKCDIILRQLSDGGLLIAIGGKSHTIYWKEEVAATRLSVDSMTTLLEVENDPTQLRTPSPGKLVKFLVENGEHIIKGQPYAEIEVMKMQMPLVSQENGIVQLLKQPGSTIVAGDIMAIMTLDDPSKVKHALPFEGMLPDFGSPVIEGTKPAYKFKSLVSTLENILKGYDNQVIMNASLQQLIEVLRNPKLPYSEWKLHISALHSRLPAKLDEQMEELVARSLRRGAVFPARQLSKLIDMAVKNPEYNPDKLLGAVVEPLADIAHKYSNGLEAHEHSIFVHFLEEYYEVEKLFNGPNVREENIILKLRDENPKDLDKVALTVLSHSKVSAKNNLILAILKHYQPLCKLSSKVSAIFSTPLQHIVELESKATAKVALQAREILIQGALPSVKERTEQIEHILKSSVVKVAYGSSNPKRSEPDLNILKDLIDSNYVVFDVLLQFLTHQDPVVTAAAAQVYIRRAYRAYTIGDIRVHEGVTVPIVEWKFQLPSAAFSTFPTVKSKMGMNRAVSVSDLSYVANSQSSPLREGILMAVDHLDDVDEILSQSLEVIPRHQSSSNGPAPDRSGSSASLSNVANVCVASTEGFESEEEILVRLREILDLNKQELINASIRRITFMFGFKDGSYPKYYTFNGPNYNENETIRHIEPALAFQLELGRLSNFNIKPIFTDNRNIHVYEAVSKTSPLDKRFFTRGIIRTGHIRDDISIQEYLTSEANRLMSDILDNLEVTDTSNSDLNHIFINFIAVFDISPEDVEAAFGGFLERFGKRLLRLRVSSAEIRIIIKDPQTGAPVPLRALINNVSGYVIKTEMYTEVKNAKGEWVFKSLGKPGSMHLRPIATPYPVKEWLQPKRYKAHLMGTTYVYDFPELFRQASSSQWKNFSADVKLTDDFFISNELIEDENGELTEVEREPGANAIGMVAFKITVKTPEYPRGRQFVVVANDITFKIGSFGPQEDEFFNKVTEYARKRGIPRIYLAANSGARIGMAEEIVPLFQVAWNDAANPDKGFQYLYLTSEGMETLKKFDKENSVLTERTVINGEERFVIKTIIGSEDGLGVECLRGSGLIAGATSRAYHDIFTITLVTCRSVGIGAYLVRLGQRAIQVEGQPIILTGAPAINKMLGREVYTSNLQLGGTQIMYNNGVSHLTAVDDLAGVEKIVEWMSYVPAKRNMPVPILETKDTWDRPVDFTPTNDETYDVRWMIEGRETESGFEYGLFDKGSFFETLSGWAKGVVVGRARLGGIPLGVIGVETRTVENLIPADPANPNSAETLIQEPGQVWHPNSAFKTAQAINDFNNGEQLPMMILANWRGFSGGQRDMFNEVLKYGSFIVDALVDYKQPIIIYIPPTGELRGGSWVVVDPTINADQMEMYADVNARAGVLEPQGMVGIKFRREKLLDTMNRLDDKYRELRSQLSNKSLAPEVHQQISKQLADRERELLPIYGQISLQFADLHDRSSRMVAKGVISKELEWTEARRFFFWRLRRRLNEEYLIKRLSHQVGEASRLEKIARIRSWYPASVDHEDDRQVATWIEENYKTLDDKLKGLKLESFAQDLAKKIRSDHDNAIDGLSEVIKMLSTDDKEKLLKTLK
human (hACC2), sequence (O00763 whole entry): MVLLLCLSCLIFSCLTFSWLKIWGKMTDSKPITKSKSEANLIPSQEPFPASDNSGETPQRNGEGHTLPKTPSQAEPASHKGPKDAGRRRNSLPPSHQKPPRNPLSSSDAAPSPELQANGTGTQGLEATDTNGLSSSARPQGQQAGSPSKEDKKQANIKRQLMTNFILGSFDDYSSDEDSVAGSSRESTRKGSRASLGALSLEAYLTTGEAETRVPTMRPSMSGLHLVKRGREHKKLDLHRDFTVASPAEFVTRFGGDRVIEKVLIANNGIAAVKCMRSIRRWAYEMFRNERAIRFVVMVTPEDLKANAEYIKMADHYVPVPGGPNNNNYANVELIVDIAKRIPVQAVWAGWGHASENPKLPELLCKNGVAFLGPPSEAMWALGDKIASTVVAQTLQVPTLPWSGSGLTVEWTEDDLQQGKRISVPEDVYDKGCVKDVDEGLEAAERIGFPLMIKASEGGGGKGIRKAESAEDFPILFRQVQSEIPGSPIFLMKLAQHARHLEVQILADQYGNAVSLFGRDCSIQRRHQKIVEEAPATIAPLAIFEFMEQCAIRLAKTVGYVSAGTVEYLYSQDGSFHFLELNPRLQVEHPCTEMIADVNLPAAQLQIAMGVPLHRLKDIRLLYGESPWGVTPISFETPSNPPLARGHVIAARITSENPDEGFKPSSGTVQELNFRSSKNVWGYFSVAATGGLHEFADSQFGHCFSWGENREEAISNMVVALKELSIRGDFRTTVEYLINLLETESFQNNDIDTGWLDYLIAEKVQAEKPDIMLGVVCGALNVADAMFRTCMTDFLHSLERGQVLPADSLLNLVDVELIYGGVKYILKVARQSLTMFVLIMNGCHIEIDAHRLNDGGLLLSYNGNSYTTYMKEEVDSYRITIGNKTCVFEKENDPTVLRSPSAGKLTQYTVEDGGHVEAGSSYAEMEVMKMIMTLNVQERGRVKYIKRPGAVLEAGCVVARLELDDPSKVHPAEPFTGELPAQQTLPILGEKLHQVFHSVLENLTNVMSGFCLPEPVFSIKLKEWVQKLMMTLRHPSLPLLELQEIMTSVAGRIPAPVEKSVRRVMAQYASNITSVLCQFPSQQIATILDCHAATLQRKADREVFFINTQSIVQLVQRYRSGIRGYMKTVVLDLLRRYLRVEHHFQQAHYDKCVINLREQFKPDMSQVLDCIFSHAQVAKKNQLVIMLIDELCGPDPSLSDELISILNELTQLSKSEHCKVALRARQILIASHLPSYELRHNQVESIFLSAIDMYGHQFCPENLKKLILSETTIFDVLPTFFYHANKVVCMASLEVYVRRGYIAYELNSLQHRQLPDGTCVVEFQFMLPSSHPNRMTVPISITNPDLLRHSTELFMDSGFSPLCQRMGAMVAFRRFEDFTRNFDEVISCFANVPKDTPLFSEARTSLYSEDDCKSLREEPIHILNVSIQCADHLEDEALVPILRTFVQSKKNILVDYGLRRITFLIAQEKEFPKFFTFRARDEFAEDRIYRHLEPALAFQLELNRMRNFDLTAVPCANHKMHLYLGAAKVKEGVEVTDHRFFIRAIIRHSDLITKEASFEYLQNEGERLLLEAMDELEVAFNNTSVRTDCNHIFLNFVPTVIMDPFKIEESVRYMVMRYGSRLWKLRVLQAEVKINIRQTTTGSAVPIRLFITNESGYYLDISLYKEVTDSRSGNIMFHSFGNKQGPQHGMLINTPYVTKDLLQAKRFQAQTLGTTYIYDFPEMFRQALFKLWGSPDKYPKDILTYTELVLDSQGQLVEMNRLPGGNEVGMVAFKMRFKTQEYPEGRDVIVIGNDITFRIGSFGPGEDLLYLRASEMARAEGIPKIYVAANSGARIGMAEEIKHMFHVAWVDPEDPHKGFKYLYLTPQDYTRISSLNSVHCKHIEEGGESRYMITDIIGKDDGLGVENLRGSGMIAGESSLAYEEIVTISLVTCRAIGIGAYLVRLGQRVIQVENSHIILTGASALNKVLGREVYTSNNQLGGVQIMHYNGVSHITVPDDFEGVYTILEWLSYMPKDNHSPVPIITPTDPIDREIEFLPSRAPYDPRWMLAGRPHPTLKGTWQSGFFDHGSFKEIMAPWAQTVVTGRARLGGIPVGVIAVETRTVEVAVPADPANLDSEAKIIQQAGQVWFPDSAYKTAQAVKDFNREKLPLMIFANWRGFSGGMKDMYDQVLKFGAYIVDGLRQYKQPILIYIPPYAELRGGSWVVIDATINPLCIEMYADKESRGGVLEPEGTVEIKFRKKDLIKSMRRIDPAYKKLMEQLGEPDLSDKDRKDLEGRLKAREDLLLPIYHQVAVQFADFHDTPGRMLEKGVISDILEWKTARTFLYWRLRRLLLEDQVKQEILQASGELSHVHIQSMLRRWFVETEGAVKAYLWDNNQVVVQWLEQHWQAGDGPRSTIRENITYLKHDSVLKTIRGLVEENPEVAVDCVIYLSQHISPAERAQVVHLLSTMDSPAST

Row | Structure (SMILES) | IC90 [1, 5] | IC90 [1, 6] | IC50 (human (hACC2); Table 2a) | IC50 (human (hACC2); Table 2b, additional results) | IC90 (Diplodia maydis (Dm); [7]) | IC90 (Diplodia maydis (Dm); [8]) | IC50 (fungal (fACC2); Table 2a) | IC50 (fungal (fACC2); Table 2b, additional results) | IC90 (Rhizoctonia solani (Rs); [9]) | IC90 (Rhizoctonia solani (Rs); [10]) | IC90 [2, 11] | IC90 [2, 12] | IC90 (Septoria tritici (St); [13]) | IC90 (Septoria tritici (St); [14]) | IC90 [3, 15] | IC90 [3, 16] | Concentration at 90% Inhibition Fm [4, 17] | IC90 [4] | MIC (C. parapsilosis; [18]) | MIC (C. parapsilosis; [19]) | other results
1 | CNC(=O)C(C)(C)n1c(=O)c2c(C)c(-n3nccn3)sc2n(C[C@H](OC(C)C)c2cc(F)ccc2OC)c1=O [Compound I-50, (R)-2-(1-(2-(5-fluoro-2-methoxyphenyl)-2-isopropoxy-ethyl)-5-methyl-2,4-dioxo-6-(2H-1,2,3-triazol-2-yl)-1,4-dihydrothieno[2,3-d]pyrimidin-3(2H)-yl)-N,2-dimethylpropanamide] | > 50 µg/mL | > 50 µg/mL | 5 to 10 nM | 5 to 10 nM | 10 µg/mL (≈ 17.9 µM) | > 50 µg/mL | 1 to 5 nM | 1 to 5 nM | 2 µg/mL (≈ 3.58 µM) | 10 µg/mL (≈ 17.9 µM) | 0.4 µg/mL (≈ 0.716 µM) | 0.4 µg/mL (≈ 0.716 µM) | > 50 µg/mL | > 50 µg/mL | 2 µg/mL (≈ 3.58 µM) | 10 µg/mL (≈ 17.9 µM) | A (compound concentration of 0.4 ppm at 90% inhibition of fungal pathogens) | 0.4 µg/mL (≈ 0.716 µM) | 2.1 to 4 µg/mL (≈ 3.76 to 7.16 µM) | 2.01 to 4 µg/mL (≈ 3.6 to 7.16 µM) | 
2 | COc1ccc(F)cc1[C@H](Cn1c(=O)n(C(C)(C)C(=O)N2CC=CC2)c(=O)c2c(C)c(-n3nccn3)sc21)OC(C)C [Compound I-51, (R)-3-(1-(2,5-dihydro-1H-pyrrol-1-yl)-2-methyl-1-oxopropan-2-yl)-1-(2-(5-fluoro-2-methoxyphenyl)-2-isopropoxyethyl)-5-methyl-6-(2H-1,2,3-triazol-2-yl)thieno[2,3-d]pyrimidine-2,4(1H,3H)-dione] |  |  | 5 to 10 nM | 5 to 10 nM |  |  | 1 to 5 nM | 1 to 5 nM |  |  |  |  |  |  |  |  |  |  |  |  | IC90 ([1]; growth inhibition at 48 hours vs 2% DMSO control, read-out: Concentration at 90% Inhibition Pc): > 50 µg/mL; IC90 ([1]; growth inhibition vs 2% DMSO control at 48 hours, read-out: Concentration at 90% Inhibition Pc): > 50 µg/mL; IC90 (Diplodia maydis (Dm); Diplodia maydis, growth inhibition at 48 hours vs 2% DMSO control, read-out: Concentration at 90% Inhibition Dm): 0.08 µg/mL (≈ 0.134 µM); IC90 (Diplodia maydis (Dm); Diplodia maydis, growth inhibition vs 2% DMSO control at 48 hours, read-out: Concentration at 90% Inhibition Dm): 0.08 µg/mL (≈ 0.134 µM); IC90 (Rhizoctonia solani (Rs); mycelial plugs, growth inhibition at 48 hours vs 2% DMSO control, read-out: Concentration at 90% Inhibition Rs): 0.4 µg/mL (≈ 0.67 µM); IC90 (Rhizoctonia solani (Rs); mycelial plugs, growth inhibition vs 2% DMSO control at 48 hours, read-out: Concentration at 90% Inhibition Rs): 0.4 µg/mL (≈ 0.67 µM); IC90 ([2]; growth inhibition at 48 hours vs 2% DMSO control, read-out: Concentration at 90% Inhibition Fv): 0.4 µg/mL (≈ 0.67 µM); IC90 ([2]; growth inhibition vs 2% DMSO control at 48 hours, read-out: Concentration at 90% Inhibition Fv): 0.4 µg/mL (≈ 0.67 µM); IC90 (Septoria tritici (St); Septoria tritici, growth inhibition at 48 hours vs 2% DMSO control, read-out: Concentration at 90% Inhibition St): 2 µg/mL (≈ 3.35 µM); IC90 (Septoria tritici (St); Septoria tritici, growth inhibition vs 2% DMSO control at 48 hours, read-out: Concentration at 90% Inhibition St): 10 µg/mL (≈ 16.8 µM); IC90 ([3]; Collectotrichum graminicola, growth inhibition at 48 hours vs 2% DMSO control, read-out: Concentration at 90% Inhibition Cg): 0.08 µg/mL (≈ 0.134 µM); IC90 ([3]; Collectotrichum graminicola, growth inhibition vs 2% DMSO control at 48 hours, read-out: Concentration at 90% Inhibition Cg): 0.08 µg/mL (≈ 0.134 µM); IC90 [4, 17]: 0.08 µg/mL (≈ 0.134 µM); IC90 ([4]; Fusarium moniliforme, growth inhibition vs 2% DMSO control at 48 hours): 0.08 µg/mL (≈ 0.134 µM); MIC (C. parapsilosis; Table 3a, ATCC 22019, 3 replicates, MIC recorded at 48 h, read-out: MIC, C. parapsilosis ATCC 22019): 1.1 to 2 µg/mL (≈ 1.84 to 3.35 µM); MIC (C. parapsilosis; Table 3b (additional results), ATCC 22019, 3 replicates, MIC recorded at 48 h, read-out: MIC, C. parapsilosis ATCC 22019): > 4.01 µg/mL
3 | COc1ccc(F)cc1[C@H](Cn1c(=O)n(C(C)(C)C(=O)NCC#N)c(=O)c2c(C)c(-n3nccn3)sc21)OC(C)C [Compound I-52, (R)—N-(cyanomethyl)-2-(1-(2-(5-fluoro-2-methoxyphenyl)-2-isopropoxyethyl)-5-methyl-2,4-dioxo-6-(2H-1,2,3-triazol-2-yl)-1,4-dihydro-thieno[2,3-d]pyrimidin-3(2H)-yl)-2-methylpropanamide] | > 50 µg/mL | > 50 µg/mL | 10 to 40 nM | 10 to 40 nM | 10 µg/mL (≈ 17.1 µM) | > 50 µg/mL | 1 to 5 nM | 1 to 5 nM | > 50 µg/mL | > 50 µg/mL | 2 µg/mL (≈ 3.43 µM) | 2 µg/mL (≈ 3.43 µM) | > 50 µg/mL | > 50 µg/mL | 10 µg/mL (≈ 17.1 µM) | > 50 µg/mL | B (compound concentration of 2.0 ppm at 90% inhibition of fungal pathogens) | 2 µg/mL (≈ 3.43 µM) | 2.1 to 4 µg/mL (≈ 3.6 to 6.85 µM) | 2.01 to 4 µg/mL (≈ 3.44 to 6.85 µM) | 
